In patent US7071197B2, “N,N-disubstituted diazocycloalkanes” (Recordati S.A., priority 2002, dated 2006):
Like-named read-outs stand apart in the source and are kept apart here.

Tests used:
[1] = molecular target: T1, human 5HT1A-serotonergic receptor (Homo sapiens, UniProt P08908); experiment: [3H]8-OH-DPAT radioligand binding to human recombinant 5-HT1A receptors; settings: for Ki: [3H]8-OH-DPAT, HeLa cell membranes, read-out: Affinity: Ki
T1 construct: expressed in transfected cells
T1 sequence (P08908 1-422): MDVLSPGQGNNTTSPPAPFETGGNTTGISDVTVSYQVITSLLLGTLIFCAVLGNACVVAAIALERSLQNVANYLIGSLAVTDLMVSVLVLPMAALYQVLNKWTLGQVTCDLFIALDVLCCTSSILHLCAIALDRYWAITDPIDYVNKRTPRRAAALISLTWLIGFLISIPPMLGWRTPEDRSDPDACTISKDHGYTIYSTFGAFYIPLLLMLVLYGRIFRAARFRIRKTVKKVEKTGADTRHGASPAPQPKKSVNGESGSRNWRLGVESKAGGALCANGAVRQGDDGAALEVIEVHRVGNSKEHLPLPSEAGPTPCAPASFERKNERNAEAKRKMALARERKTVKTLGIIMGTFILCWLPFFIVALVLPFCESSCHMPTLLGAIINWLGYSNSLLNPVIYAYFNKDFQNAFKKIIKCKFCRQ
Experimental: (§1) A genomic clone coding for the human 5HT1A-serotonergic receptor was stably transfected in a human cell line (HeLa). HeLa cells were grown as monolayers in Dulbecco's modified Eagle medium (DMEM), containing 10% fetal bovine serum, gentamycin (0.1 mg/ml) and 5% carbon dioxide, at 37° C. The cells were detached from the growth flask at 95% confluence by a cell scraper and were lysed in cold 5 mM Tris and 5 mM EDTA buffer (pH 7.4). The homogenates were centrifuged at 40000×g×20 minutes and the pellets were resuspended in a small volume of cold 5 mM Tris and 5 mM EDTA buffer (pH 7.4) and immediately frozen and stored at −70° C. until use.
[^3H]8-OH-DPAT binding: on the day of experiment, the cell membranes were resuspended in incubation buffer: 50 mM Tris HCl (pH 7.4), 2.5 mM MgCl2, […] (Fargin et al., Nature 335, 358–360, 1988). The membranes were incubated in a final volume of 1 ml for 30 minutes at 30° C. with 1 nM [^3H]8-OH-DPAT, in the absence or presence of the test compounds. Non-specific binding was determined in the presence of 10 μM 5-HT. Incubation was stopped by addition of cold Tris-HCl buffer and rapid filtration through a 0.2%-polyethyleneimine-pretreated Whatman-GF/B or Schleicher-&-Schuell-GF52 filter.
The affinity of the tested compounds was evaluated as inhibition of specific binding of the radioligand to 5-HT1A receptors (IC50) by using the non-linear curve-fitting program (De Lean et al., Am. J. Physiol. 235, E97-E102, 1978). The IC50 value was converted to an affinity constant (Ki) by the equation of Cheng et al., Biochem. Pharmacol. 22, 3099–3108 (1973).

[2] = molecular target: T2, human cloned 5-HT1A receptors (Homo sapiens, UniProt P08908); experiment: [35S]GTPγS binding, membranes of HeLa cells transfected with human cloned 5-HT1A receptors; type: biochemical; settings: 5-HT maximal stimulation taken as 100%
T2 construct: expressed in transfected cells
T2 sequence (P08908 1-422): T1 sequence (P08908 1-422)
Experimental: as §1
[^35S]GTPγS binding: on the experimental day, cell membranes from HeLa cells transfected with human cloned 5-HT1A receptors were resuspended in buffer pH 7.4 containing 20 mM HEPES, 3 mM MgCl2 and 120 mM NaCl (Stanton, J. A.; Beer, M. S. Eur. J. Pharmacol. 320, 267–275, 1997). The membranes were incubated with 10 μM GDP and decreasing concentrations of test drugs (from 100 μM to 0.1 nM) or decreasing concentrations of 5-HT (from 100 μM to 0.1 nM, reference curve) for 20 min at 30° C. in a final volume of about 0.25 ml. [^35S]GTPγS ([…] in 10 μl) was added to samples and incubated for a further 30 min at 30° C. Non-specific binding was determined in the presence of 10 μM GTPγS. The incubation was stopped by addition of ice-cold HEPES buffer and rapid filtration on Unifilter GF/C filters, using a Filtermate cell harvester (Packard). The filters were washed four times with total 1.2 ml of same buffer. Radioactivity was counted by liquid scintillation spectrometry with efficiency >90% (TopCount Packard). Stimulation of [^35S]GTPγS binding induced by the compounds tested was espressed as % increase in binding above basal value, being the maximal stimulation observed with 5-HT taken as 100%. The concentration-response curve of the agonistic activity was analyzed by non linear fitting program (De Lean et al., Am. J. Physiol. 235, E97-E102, 1978).
A stimulation of [^35S]GTPγS binding represented the functional correlate of the binding of an agonist compound at the 5-HT1A receptors. Stimulation induced by the endogenous ligand 5-HT was considered the maximal stimulation attainable.

[3] = test system: rhythmic bladder-voiding contractions in anaesthetised rats; experiment: Rhythmic bladder-voiding contractions induced by bladder filling in anaesthetised rats; type: in vivo, rat; settings: for ED10 min (extrapolated dose inducing 10 minutes of disappearance of the contractions) / ED50: intravenous administration, anaesthetised rats; for ED50: Rattus norvegicus
Experimental: Female Sprague-Dawley rats weighing 225–275 g (Crl: CD® (SD) IGS BR, Charles River Italia) were used. The animals were housed with free access to food and water and maintained on a forced 12-hour alternating light-dark cycle at 22–24° C. for at least one week, except during the experiment. The activity on rhythmic bladder voiding contractions was evaluated according to the method of Dray (Dray J., Pharmacol. Methods, 13:157, 1985), with some modifications as in Guarneri (Guarneri, Pharmacol. Res. 27:173, 1993). Briefly, the rats were anaesthetised by subcutaneous injection of 1.25 g/kg (5 ml/kg) urethane, after which the urinary bladder was catheterised via the urethra using PE 50 polyethylene tubing filled with physiological saline. The catheter was tied in place with a ligature around the external urethral orifice and was connected to conventional pressure transducers (Statham P23 ID/P23 XL). […] The bladder was then filled via the recording catheter by incremental volumes of warm (37° C.) saline until reflex bladder-voiding contractions occurred (usually 0.81.5 ml). For intravenous injection of bioactive compounds, PE 50 polyethylene tubing filled with physiological saline was inserted into the jugular vein.
From the cystometrogram, the number of contractions recorded 15 minutes before (basal values) and after treatment, as well as the mean amplitude of these contractions (mean height of the peaks in mmHg), was evaluated.
Since most compounds produced an effect that was relatively rapid in onset and led to a complete cessation of bladder contractions, bioactivity was conveniently estimated by measuring the duration of bladder quiescence (i.e., the length of the time during which no contractions occurred). The number of tested animals showing a reduction in the number of contractions higher than 30% of that observed in the basal period was recorded too.
The extrapolated doses which induced a reduction in the number of contractions greater than 30% in 50% of the treated rats (ED50) were evaluated by the method of Bliss (Bliss C. I., Quart J. Pharm. Pharmacol. 11, 192–216, 1938).

Compound | Ki [1] [nM] | Functional effect ([35S]GTPγS binding) [2] | other results
O[C@@H](C1CCCCC1)[C@H](CCN1CCN(c2ccccc2OCC(F)(F)F)CC1)c1ccccc1F (racemic) [Ex. 3, 1-[(RS,SR)-4-cyclohexyl-4-hydroxy-3-(2-fluorophenyl)-butyl]-4-[2-(2,2,2-trifluoroethoxy)-phenyl]-piperazine] | 0.29 | Neutral antagonist | –
Cc1c(-c2ccccc2)oc2c(C(=O)OCCN3CCCCC3)cccc2c1=O [Flavoxate] | – | – | ED10 min (extrapolated dose inducing 10 minutes of disappearance of the contractions) [3]: >10 mg/kg
COc1ccccc1N1CCN(CCC(c2ccccc2F)C(O)C2CCCCC2)CC1 (stereo not shown) [Ex. 2, 1-[(RR-SS)-4-cyclohexyl-4-hydroxy-3-(2-fluorophenyl)-butyl]-4-(2-methoxyphenyl)-piperazine] | 0.29 | Neutral antagonist | potency at the 5-HT1A receptor compared with Ex. 5 ([1]; statistical signficance p<0.01): more potent than Ex. 5
OC(C1CCCCC1)C(CCN1CCN(c2ccccc2OCC(F)(F)F)CC1)c1ccccc1F (stereo not drawn) [Ex. 4, 1-[(RR,SS)-4-cyclohexyl-4-hydroxy-3-(2-fluorophenyl)-butyl]-4-[2-(2,2,2-trifluoroethoxy)-phenyl]-piperazine] | 0.68 | Neutral antagonist | –
COc1ccccc1N1CCN(CC[C@@H](c2ccccc2F)[C@@H](O)C2CCCCC2)CC1 [Ex. 2Y, 1-[(3S,4S)-4-cyclohexyl-4-hydroxy-3-(2-fluorophenyl)-butyl]-4-(2-methoxyphenyl)-piperazine] | 0.98 | Partial agonist | –
COc1ccccc1N1CCN(CC[C@@H](c2ccccc2F)[C@H](O)C2CCCCC2)CC1 [Ex. 1X, 1-[(3S,4R)-4-cyclohexyl-4-hydroxy-3-(2-fluorophenyl)-butyl]-4-(2-methoxyphenyl)-piperazine] | 0.5 | Partial agonist | –
CCN(CC)CC#CCOC(=O)C(O)(c1ccccc1)C1CCCCC1 (stereo not shown) [Oxybutynin] | – | – | ED50 ([3]; n.a. = not active, no significant reduction of the height of the peaks, read-out: ED50 (amplitude) (extrapolated dose inducing a 30% reduction of amplitude of the contractions in 50% of treated rats)): 0.24 mg/kg; ED50 ([3]; read-out: ED50 (frequency) (extrapolated dose inducing a reduction of the number of contractions > 30% in 50% of treated rats)): > 10 mg/kg; blockade of bladder contractions ([3]; at 240 μg/kg): did not cause a blockade of bladder contractions; ED10 min (extrapolated dose inducing 10 minutes of disappearance of the contractions) [3]: 7.77 mg/kg
